“And” between values parts separate entries of the source, which are not always exact repeats. Identical values can stand only once. Like-named read-outs stand apart in the source and are kept apart here.
Tests used:
OAT3 = molecular target: T1, OAT3 (Homo sapiens, UniProt Q8TCC7); assay: Uptake into HEK293 cells expressing OAT3; conditions: for Uptake Rate / Fold-Change: 6 μM; for Fold-Change: vs HEK293-mock; for Substrate: OAT3
T1 sequence (Q8TCC7 1-542): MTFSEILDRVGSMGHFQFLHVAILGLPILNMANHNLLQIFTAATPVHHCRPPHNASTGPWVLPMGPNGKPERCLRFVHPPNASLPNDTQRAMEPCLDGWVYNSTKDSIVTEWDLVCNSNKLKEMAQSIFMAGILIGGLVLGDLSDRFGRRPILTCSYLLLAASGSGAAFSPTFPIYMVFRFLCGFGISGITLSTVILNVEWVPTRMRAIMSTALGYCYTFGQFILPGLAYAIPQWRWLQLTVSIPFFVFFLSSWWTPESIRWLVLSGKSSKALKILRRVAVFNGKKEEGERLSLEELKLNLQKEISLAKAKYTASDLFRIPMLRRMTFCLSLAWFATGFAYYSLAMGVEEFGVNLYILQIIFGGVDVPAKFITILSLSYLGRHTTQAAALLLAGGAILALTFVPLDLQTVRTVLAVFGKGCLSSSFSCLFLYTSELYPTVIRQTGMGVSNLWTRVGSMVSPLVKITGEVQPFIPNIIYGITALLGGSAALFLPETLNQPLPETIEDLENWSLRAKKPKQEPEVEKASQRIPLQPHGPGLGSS

BCRP = molecular target: T2, BCRP (Homo sapiens, UniProt Q9UNQ0); assay: Permeability in LLC-PK1-BCRP cells; format: in vitro ADME; conditions: for Substrate: BCRP
T2 construct: host or cells: LLC-PK1 (porcine kidney cells)
T2 sequence (Q9UNQ0 1-655): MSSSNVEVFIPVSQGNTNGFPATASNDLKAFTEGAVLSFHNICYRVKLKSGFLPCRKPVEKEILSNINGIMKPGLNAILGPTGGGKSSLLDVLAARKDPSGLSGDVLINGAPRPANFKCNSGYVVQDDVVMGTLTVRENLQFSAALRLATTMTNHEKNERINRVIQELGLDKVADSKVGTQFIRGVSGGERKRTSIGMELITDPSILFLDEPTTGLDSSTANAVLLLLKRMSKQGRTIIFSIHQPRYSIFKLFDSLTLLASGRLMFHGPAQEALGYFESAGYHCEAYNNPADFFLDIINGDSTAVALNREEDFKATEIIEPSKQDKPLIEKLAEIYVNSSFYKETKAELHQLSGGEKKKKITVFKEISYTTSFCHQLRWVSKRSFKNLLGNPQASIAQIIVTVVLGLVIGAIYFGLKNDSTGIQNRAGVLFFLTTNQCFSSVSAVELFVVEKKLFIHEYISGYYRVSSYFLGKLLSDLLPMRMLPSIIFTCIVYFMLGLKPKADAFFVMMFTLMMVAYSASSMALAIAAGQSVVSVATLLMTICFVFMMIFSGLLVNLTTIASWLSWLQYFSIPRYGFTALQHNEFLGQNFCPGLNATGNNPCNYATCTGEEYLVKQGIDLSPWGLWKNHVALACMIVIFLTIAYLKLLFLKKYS
Experimental: LLC-PK1-P-gp or BCRP cells were seeded on collagen-coated 24-transwell membranes at a density of 2.5 × 10^5 cells/mL and maintained at 37 °C in a humidified atmosphere with 5% CO2/95% air for 5 days in Medium 199 supplemented with 10% […], 50 μg/mL of gentamycin, and 50 μg/mL of hygromycin. The culture medium was replaced every other day. On the day of the experiment, the growth medium was discarded, and the attached cells were washed with prewarmed HBSS (pH 7.4) and preincubated with HBSS for 20 min at 37 °C. […] Aliquots (0.1 mL) in the apical side were transferred to clean tubes every 15 min for 1 h and replaced with an equal volume of fresh HBSS.
LLC-PK1-P-gp or BCRP cells were seeded on collagen-coated 24-transwell membranes at a density of 2.5 × 10^5 cells/mL and cultured for 5 days. The growth medium was discarded on the day of the experiment, and the attached cells were washed with prewarmed HBSS (pH 7.4) and preincubated with HBSS for 20 min at 37 °C. […] Aliquots (0.1 mL) in the apical side were transferred to clean tubes every 15 min for 1 h and replaced with an equal volume of fresh HBSS. Aliquots (30 μL) of each sample were vortex-mixed with 90 μL of IS solution for 1 min, and then centrifugation was performed at 13,500 rpm at 4 °C for 5 min. Aliquots (5 μL) of the supernatant were injected into the LC-MS/MS for analysis.
The permeability (Papp) was calculated from the following equation [23, 24]: Papp(cm/s)=transport ratenmol/s/JP−1366 or M1 concentration (μM)×surface area of membrane (cm^2)

gastric acid secretion = conditions: lumen-perfused rat model, among JP-1366, vonoprazan, and tegoprazan; cited from earlier work
gastric pH = conditions: cited from earlier work; for % time pH > 4.0 over a period of 24 h: 40 mg dose group, healthy subjects
Cl^- channel = assay: BioPrint profiling, Cl- channel; conditions: BioPrint profiling (Eurofins CEREP)
MT1 = MT1 (Homo sapiens, UniProt P48039); assay: BioPrint profiling, MT1; conditions: BioPrint profiling (Eurofins CEREP)
Chain of MT1 (P48039 whole entry): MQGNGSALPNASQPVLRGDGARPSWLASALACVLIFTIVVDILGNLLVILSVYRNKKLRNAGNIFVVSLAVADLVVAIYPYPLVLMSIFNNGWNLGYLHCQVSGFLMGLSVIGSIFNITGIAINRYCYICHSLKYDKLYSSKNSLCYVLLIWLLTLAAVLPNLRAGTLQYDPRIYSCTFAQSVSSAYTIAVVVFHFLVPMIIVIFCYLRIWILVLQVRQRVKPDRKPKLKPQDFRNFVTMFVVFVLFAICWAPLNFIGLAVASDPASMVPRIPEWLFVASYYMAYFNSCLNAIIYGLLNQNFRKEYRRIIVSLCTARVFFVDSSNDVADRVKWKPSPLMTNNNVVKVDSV
Description: However, the involvement of multiple metabolizing enzymes such as CYP1A2, CYP2C9/19, CYP1A2, and CYP2D6 with a minor contribution in the formation of M1, M6, M19, and M21 and the involvement of UGT1A1 and UGT2B7 in the formation of M15 from M1 and the formation of 23 metabolites might reduce the risk of drug–drug interaction potential mediated by a single metabolizing enzyme and a main metabolite. Additionally, it may reduce the intersubject variability caused by genetic variations in these metabolizing enzymes.

[1] = pig, pH 7.4, with Ko134 1 μM, LLC-PK1-BCRP, Ko134 1 μM
[2] = pig, pH 7.4, LLC-PK1-BCRP, Control

Row | SMILES | Uptake Rate (OAT3; HEK293-OAT3, control) [pmol/min/10^5 Cells] | Fold-Change (OAT3; HEK293-OAT3, control) | Uptake Rate (OAT3; HEK293-OAT3, probenecid 20 μM) [pmol/min/10^5 Cells] | Fold-Change (OAT3; HEK293-OAT3, probenecid 20 μM) | Substrate (OAT3) | Substrate (BCRP) | Papp A→B at 1 h, 4 µM (BCRP; [1]) [×10⁻⁶ cm/s] | Papp B→A at 1 h, 4 µM (BCRP; [1]) [×10⁻⁶ cm/s] | Papp A→B at 1 h, 4 µM (BCRP; [2]) [×10⁻⁶ cm/s] | Papp B→A at 1 h, 4 µM (BCRP; [2]) [×10⁻⁶ cm/s] | efflux ratio at 1 h (BCRP; pig, pH 7.4, LLC-PK1-BCRP, concentration range of 0.3–85 μM, read-out: ER) | gastric acid secretion inhibitory effect (gastric acid secretion) | % time pH > 4.0 over a period of 24 h (gastric pH; MAD) | % time pH > 4.0 over a period of 24 h (gastric pH; SAD) | % time pH > 4 at nighttime (gastric pH; repeated 40 mg dose) | IC50 (Cl^- channel) [nM] | IC50 (MT1) [nM]
1 | Cc1cccc(CO)c1CNc1cc(C(=O)N2CCC2)cn2c(C)c(C)nc12 [M1, azetidin-1-yl(8-((2-(hydroxymethyl)-6-methyl-benzyl)amino)-2,3-dimethylimidazo[1,2-a]pyridin-6-yl)methanone] | 58.53 ± 3.71 | 1.1 | 52.47 ± 2.27 | 1.0 | No | No | 32 ± 2.84 | 47.3 ± 1.39 | 31.7 ± 3.39 | 33.8 ± 3.45 | 1.1 to 1.7 |  |  |  |  |  | 
2 | Cc1cccc(C)c1CNc1cc(C(=O)N2CCC2)cn2c(C)c(C)nc12 [JP-1366, 1-azetidinyl(8-(((2,6-dimethylphenyl)methyl)amino)-2,3-dimethylimidazo(1,2-a)pyridin-6-yl)methanone] | 58.53 ± 3.71 |  | 52.47 ± 2.27 |  | No | No | 13.6 ± 0.54 | 22.6 ± 0.47 | 14.8 ± 1.23 | 20.5 ± 3.95 |  | fastest-acting and superior gastric acid secretion inhibitory effect | 89.28 ± 9.12% and 89.28% ± 9.12% | 91.84% ± 4.06% | 89.28% ± 9.12% | 910 | 870

From article PMC11207335, “In Vitro Metabolism and Transport Characteristics of Zastaprazan” (Pharmaceutics, 2024)
